Measured values from PubChem BioAssay (NCI).
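Following 48 hours of exposure in 96-well plates, responses at five concentrations were used to interpolate endpoints linearly. The concentration for full growth arrest is given as TGI.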

Experiments:
Assay in all cases: NCI tumour cell line growth inhibition, 48 h
A498 renal = tested on: A498 renal
BT-549 breast = tested on: BT-549 breast
MOLT-4 leukemia = tested on: MOLT-4 leukemia
RPMI-8226 leukemia = tested on: RPMI-8226 leukemia
RXF 393 renal = tested on: RXF 393 renal
SF-268 CNS = tested on: SF-268 CNS
SK-MEL-5 melanoma = tested on: SK-MEL-5 melanoma
UACC-257 melanoma = tested on: UACC-257 melanoma
UO-31 renal = tested on: UO-31 renal
OVCAR-4 ovarian = tested on: OVCAR-4 ovarian

Row | SMILES | TGI (A498 renal) [µM] | TGI (BT-549 breast) [µM] | TGI (MOLT-4 leukemia) [µM] | TGI (RPMI-8226 leukemia) [µM] | TGI (RXF 393 renal) [µM] | TGI (SF-268 CNS) [µM] | TGI (SK-MEL-5 melanoma) [µM] | TGI (UACC-257 melanoma) [µM] | TGI (UO-31 renal) [µM] | TGI (OVCAR-4 ovarian) [µM]
1 | CCOC(=O)C1CCC(=O)N1C(=O)c1ccccc1 (centres undefined) | > 100 | > 100 | > 100 | > 100 | > 100 | > 100 | > 100 | > 100 | > 100 | –
2 | c1c2c(cc(-n3nnc4c3CCCCCC4)c1-n1nnc3c1CCCCCC3)CCCCCC2 | 22.2 | – | 11 | – | 21.6 | 23.8 | 24.7 | 32.9 | 18.9 | –
3 | CN(C)CCNC(=O)c1cccc2nc(-c3ccccc3)oc12 | > 94.3 | – | > 89.5 | > 100 | > 100 | > 100 | 59.6 | 98.1 | 45.1 | > 100
4 | CCOC(=O)c1nnsc1NN | – | > 100 | > 100 | – | > 100 | > 100 | > 100 | > 100 | > 100 | > 100
5 | O=c1[nH]c(Nc2cccc(CO)c2)nc2nc[nH]c12 | – | > 100 | > 100 | > 100 | > 100 | > 100 | > 100 | > 100 | > 100 | > 100
6 | CN(C)CC1CCC(CN(C)C)C1=O (centres undefined) | > 58.9 | – | 4.03 | 3.33 | 9.68 | 42.4 | 15.9 | 17.6 | 14 | 15.8
7 | CC(=O)OCc1c(O)c2c(c(O)c1COC(C)=O)C(=O)C=CC2=O | 34.7 | – | 15.1 | > 100 | – | 30.8 | 28.5 | 20.1 | 29 | 22.7
8 | CO[C@]12C[C@H](CNC(=O)c3ccc[nH]3)O[C@H]1NC(=O)N2 | > 100 | > 100 | – | > 100 | – | > 100 | > 100 | > 100 | > 100 | –
9 | O=c1cc(-c2ccccc2)oc2c(-c3cc(Cl)cc4c(=O)cc(-c5ccccc5)oc34)cc(Cl)cc12 | 56.7 | > 100 | 52.1 | > 100 | > 100 | > 100 | 32.8 | – | 60.4 | > 100
10 | C=C1c2nc3ccccc3n2C=C(c2ccc(Cl)cc2)N1c1ccc(OC)cc1 | > 100 | 6.88 | > 100 | > 100 | 21.6 | – | 46.2 | 30.5 | 19.4 | 46.2
11 | N#Cc1c(-c2ccccc2)cc(-c2ccc(Cl)cc2)[nH]c1=S | 63.5 | > 100 | > 100 | 80.2 | > 100 | > 100 | 39 | – | > 100 | > 100
12 | COc1ccc(NC(=S)NC(=O)c2ccc3c(c2)Sc2ccccc2O3)c([N+](=O)[O-])c1 | 38.2 | 70.5 | > 100 | – | 75.6 | 45.7 | > 100 | > 100 | 57.4 | 91
13 | CN(C)CCC(=O)/C=C\c1ccccc1 | 39.5 | – | 33.1 | 34.4 | 29.2 | – | 31.8 | 31.5 | 34 | 33.3
14 | O=c1[nH]c(=O)n(C2CC(O)C(CO)O2)cc1OCc1ccccc1 (centres undefined) | – | > 100 | > 100 | > 100 | > 100 | > 100 | > 100 | > 100 | > 100 | > 100
15 | CCOC(=O)C#Cc1ccccc1 | 75.3 | 79.5 | 12.8 | 35.2 | – | – | 17.4 | > 100 | 2.11 | 11.7
16 | COc1cc2c(cc1OC)-c1cc3ccccc3c(=O)n1CC2 | – | > 100 | 97 | 35 | 21.6 | > 100 | 23.5 | > 100 | > 100 | > 100
17 | CCCCn1c(-c2ccc([N+](=O)[O-])cc2)cs/c1=N/N=C1\C(=O)Nc2ccc(Br)cc21 | 34.3 | 51.6 | 46.5 | – | 22.5 | > 100 | 27.8 | 47.2 | 34.2 | 31.8
18 | CC1(C)[C@H]2CC[C@@]13C(=O)N1C(=O)O[C@@H]([C@H]1Cl)C(Cl)(COCc1ccccc1)C(=O)OCCO[C@H]3C2 (some centres undefined) | > 100 | > 100 | 76.9 | > 100 | – | > 100 | > 100 | > 100 | > 100 | > 100
